The subject of data set [1] is Narkotisierte Katze. Nature of the data set: Anaesthetised cat: inhibition of isoprenaline-induced tachycardia (competitive ß-adrenergic antagonism in vivo). Further details: species or system Katzen. As to conditions: Felis catus, read-out: ED50 Hemmung der Isoprenalin-induzierten Herzfrequenzsteigerung. From the text:
Zum Nachweis des kompetitiven ß-adrenergischen Antagonismus in vivo wurden mischrassige Katzen beiderlei Geschlechts und in Chloralose-Pentobarbitalnarkose verwendet. […] Die Registrierung erfolgte über ein Stathamelement aus einem Beckman Dynograph Typ R. Aus der Blutdruckamplitude wurde mit Hilfe eines Kardiotachometers die Herzfrequenz abgenommen und auf einem weiteren Kanal des Dynographen aufgezeichnet. Die Applikation der Testlösungen erfolgte über einen Katheter in die linke Vena femoralis. Es wurde die inhibierende Wirkung ansteigender Testsubstanz-Dosen auf die durch i.v.Gabe von 0,5 gg Isoprenalin/kg Körpergewicht induzierte Tachykardie bzw. Hypotonie (Blutdrucksenkung) geprüft. Als ED50-Werte wurden in der Tabelle die Dosen der Referenz- bzw. erfindungsgemäßen Verbindung eingetragen, die die Isoprenalineffekte jeweils auf die Hälfte reduzierten.

The test system of data set [2] is Reserpinisierte Ratte. The data set is described as follows: Intrinsic sympathomimetic activity (ISA) in reserpinised anaesthetised rat. Format: in vivo, Wistar-Ratten. The conditions noted are these: intravenous; maximal heart-rate increase (mean of 6 animals) relative to 1,0 µg Isoprenalin/kg i.v.; reserpine 5 mg/kg i.p. 24 h before. The procedure:
Die Tiere bekamen 24 Stunden vor Versuchsbeginn 5 mg Reserpin/kg intraperitoneal. Die Herzfrequenz wurde aus der Blutdruckamplitude (Polyäthylenkatheter mit aufgesetztem Stathamelement in der rechten Arteria femoralis) mit Hilfe eines Kardiotachometers abgenommen und auf einem Schreiber fortlaufend registriert. Die Applikation der Testlösungen erfolgte über einen Katheter in der linken Vena femoralis. Es wurden von jeder Testverbindung vier ansteigende Dosen getrennt jeweils an sechs verschiedenen Tieren geprüft.
Die maximale Steigerung der Herzfrequenz (Mittelwert aus 6 Tieren) durch die einzelnen Testverbindungen wurde als Maß für ihre agonistische Aktivität genommen und in Prozent der Frequenzsteigerung durch 1,0 µg Isoprenalin/kg Körpergewicht i.v. errechnet.

Data set [3] can be described thus: in vivo. As to conditions: for LD50 at 168 h: mouse. The source says:
Die akute Toxizität wurde an NMRI-Mäusen durch intravenöse bzw. orale Gabe von steigenden Dosen der erfindungsgemäßen Verbindung ermittelt.

Where [4] appears, read: intravenous, cat under chloralose-pentobarbital anaesthesia, isoprenaline 0,5 gg/kg i.v., dose halving the isoprenaline effect.

Data on 3 compounds can be found in patent publication EP0025528A1, “1-(2-Acetylphenylthio)-3-alkylamino-2-propanols and their acid-addition salts, process for their preparation and medicines containing them” (A. Nattermann & Cie. GmbH, priority 1979, dated 1981).

Read-outs that look alike come from different tables or passages of the source.

`CC(=O)c1ccccc1SCC(O)CNC(C)(C)C` (racemic) [Beispiel 1, 1-(2-Acetylphenylthio)-3-tert.-butyl-amino-2-propanol]: the median effective dose (ED50) in data set [1] (setting [4]) was 0.044 mg/kg. In addition, in data set [2], the “ß-sympathomimetische Eigenaktivität (ISA) in % der sympathomimetischen Aktivität von Isoprenalin” value is reported as 33%. In data set [3] (iv), the selectivity ratio was 2520. Further, the LD50 at 168 h is 111 mg/kg in data set [3] (iv) and 667 mg/kg in data set [3] (po).
For `CC(=O)Nc1ccc(OCC(O)CNC(C)C)cc1` (centres unmarked) [Practolol], the ED50 in data set [1] (setting [4]) turned out to be 0.144 mg/kg. The “ß-sympathomimetische Eigenaktivität (ISA) in % der sympathomimetischen Aktivität von Isoprenalin” value in data set [2] turned out to be 54%. In addition, in data set [3] (iv), the selectivity ratio amounted to 1030 and the LD50 at 168 h was 148 mg/kg.
Turning to `CC(C)NCC(O)COc1cccc2ccccc12` (centres unmarked) [Propranolol], the ED50 in data set [1] (iv) is 0.017 mg/kg. Besides, the “ß-sympathomimetische Eigenaktivität (ISA) in % der sympathomimetischen Aktivität von Isoprenalin” value in data set [2] is reported as 0%.

As usually defined, the ED50 is the dose that gives a 50% effect, or the effect in half of the subjects. As usually defined, the LD50 is the dose expected to kill half of the subjects tested. Low values mean greater toxicity, high ones lower toxicity.
